Structures can show the parent of a compound that is named as a salt.

The target of one assay is T1, Mouse ER α-glucosidase I (Mus musculus, UniProt Q80UM7).
T1 construct: gene Mogs
T1 sequence (Q80UM7 1-834): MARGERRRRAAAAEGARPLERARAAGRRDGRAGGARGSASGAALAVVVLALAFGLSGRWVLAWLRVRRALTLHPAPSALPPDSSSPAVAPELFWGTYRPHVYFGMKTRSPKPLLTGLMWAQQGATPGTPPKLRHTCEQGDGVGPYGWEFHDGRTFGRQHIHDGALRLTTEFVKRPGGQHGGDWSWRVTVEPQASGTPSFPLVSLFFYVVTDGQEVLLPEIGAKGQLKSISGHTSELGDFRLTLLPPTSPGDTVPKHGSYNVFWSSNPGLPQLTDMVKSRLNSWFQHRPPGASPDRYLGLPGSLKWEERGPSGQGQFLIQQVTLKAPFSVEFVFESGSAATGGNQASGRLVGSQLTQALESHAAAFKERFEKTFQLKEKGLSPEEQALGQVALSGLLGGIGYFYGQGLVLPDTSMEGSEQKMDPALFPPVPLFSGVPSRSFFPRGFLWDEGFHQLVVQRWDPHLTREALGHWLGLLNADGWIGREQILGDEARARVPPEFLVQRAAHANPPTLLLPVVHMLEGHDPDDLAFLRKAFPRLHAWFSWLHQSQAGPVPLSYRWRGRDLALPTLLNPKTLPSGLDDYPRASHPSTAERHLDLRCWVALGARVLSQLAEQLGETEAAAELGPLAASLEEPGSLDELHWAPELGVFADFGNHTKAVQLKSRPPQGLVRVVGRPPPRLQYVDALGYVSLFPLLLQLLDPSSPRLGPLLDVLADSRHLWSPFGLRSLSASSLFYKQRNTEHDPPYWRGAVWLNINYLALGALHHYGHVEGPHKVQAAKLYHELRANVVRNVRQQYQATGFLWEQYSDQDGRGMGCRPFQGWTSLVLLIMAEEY
The assay can be described thus: enzyme inhibition assay, purified enzyme. The assay is classed as biochemical. The following applies: read-out: IC50 ^a / UV-4B. The text has this: enzyme inhibition assay, purified enzyme on Mouse ER α-glucosidase I

The target in assay [1] is T2, Rat intestinal isomaltase (Rattus norvegicus, UniProt P23739).
T2 construct: gene Si; native rat intestinal enzyme; isomaltase (N-terminal) subunit of sucrase-isomaltase
T2 sequence (P23739 1-1013 limits assumed): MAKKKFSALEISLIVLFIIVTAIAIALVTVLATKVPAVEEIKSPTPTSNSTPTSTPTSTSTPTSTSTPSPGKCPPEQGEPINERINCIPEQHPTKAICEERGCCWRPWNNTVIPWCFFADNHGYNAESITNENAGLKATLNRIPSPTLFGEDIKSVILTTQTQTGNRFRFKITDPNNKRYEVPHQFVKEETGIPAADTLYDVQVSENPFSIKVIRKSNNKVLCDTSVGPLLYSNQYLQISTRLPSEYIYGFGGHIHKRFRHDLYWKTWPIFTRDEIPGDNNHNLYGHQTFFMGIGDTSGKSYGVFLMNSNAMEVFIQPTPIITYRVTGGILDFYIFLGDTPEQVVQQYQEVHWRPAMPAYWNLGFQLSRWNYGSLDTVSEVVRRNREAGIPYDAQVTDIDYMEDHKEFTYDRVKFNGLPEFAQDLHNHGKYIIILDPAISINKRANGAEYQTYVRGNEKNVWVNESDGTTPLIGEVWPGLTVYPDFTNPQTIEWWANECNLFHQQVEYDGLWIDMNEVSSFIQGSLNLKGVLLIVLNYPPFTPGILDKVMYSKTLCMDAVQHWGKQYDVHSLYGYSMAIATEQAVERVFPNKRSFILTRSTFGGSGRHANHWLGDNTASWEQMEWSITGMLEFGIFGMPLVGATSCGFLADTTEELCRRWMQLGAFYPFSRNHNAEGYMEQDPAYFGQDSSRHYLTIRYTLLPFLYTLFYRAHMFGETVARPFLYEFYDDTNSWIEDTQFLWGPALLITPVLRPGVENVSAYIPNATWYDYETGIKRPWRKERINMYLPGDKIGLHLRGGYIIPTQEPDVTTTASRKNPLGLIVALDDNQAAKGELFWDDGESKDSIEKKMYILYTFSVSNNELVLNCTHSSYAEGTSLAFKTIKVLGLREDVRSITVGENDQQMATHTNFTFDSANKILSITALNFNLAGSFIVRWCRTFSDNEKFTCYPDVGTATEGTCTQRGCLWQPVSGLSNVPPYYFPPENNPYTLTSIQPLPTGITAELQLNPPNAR
The assay can be described thus: enzyme inhibition assay. The note with it: read-out: IC50 ^a / UV-4B. Type of assay: biochemical. The text has this: enzyme inhibition assay on Rat intestinal isomaltase

Assay [2] addresses T3, α-glucosidase II (human MDMΦs) (Homo sapiens, UniProt Q14697).
T3 construct: gene GANAB; endogenous enzyme in primary human monocyte-derived macrophages; with Glucosidase 2 subunit beta
T3 sequence (Q14697 29-944): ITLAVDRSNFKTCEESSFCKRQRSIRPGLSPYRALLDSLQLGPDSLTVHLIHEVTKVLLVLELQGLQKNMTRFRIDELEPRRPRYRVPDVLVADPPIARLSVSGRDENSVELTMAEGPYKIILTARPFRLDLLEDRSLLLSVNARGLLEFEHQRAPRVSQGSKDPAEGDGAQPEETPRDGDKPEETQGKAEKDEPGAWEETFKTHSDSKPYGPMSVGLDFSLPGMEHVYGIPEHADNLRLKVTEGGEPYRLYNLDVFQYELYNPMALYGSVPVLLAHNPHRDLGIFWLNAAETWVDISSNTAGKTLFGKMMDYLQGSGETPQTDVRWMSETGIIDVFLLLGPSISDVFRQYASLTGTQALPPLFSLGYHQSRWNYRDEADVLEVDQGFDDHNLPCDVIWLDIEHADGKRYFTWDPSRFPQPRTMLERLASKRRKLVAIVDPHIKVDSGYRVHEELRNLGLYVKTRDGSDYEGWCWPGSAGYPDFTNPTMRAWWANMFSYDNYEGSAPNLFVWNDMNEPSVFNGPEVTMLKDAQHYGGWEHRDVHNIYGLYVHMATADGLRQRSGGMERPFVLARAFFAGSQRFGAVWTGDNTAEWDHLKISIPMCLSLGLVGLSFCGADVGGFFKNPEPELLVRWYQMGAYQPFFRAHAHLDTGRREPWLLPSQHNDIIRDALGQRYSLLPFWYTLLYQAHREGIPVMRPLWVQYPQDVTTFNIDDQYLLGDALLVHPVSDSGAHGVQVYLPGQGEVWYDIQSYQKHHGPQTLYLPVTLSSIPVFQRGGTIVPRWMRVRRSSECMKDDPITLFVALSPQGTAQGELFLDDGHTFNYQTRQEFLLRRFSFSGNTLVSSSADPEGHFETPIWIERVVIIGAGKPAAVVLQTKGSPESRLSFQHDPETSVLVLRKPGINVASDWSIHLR
T3 sequence (P14314 15-528 partner): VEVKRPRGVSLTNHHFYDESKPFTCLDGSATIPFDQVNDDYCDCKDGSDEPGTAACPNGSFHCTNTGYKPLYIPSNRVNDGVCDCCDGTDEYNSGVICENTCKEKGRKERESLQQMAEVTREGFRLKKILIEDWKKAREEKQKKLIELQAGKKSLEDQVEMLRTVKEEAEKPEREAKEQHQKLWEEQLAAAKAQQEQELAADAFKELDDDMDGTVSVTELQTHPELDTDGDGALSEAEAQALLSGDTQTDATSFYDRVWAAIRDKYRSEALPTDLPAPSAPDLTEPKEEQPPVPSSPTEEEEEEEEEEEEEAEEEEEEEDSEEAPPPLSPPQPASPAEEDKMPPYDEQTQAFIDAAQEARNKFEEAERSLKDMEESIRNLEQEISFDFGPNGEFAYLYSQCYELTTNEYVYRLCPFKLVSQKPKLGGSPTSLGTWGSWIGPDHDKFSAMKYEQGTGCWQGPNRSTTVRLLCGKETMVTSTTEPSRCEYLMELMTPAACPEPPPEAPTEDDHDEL
The assay can be described thus: free oligosaccharide (Glc1Man4GlcNAc1) accumulation in human MDMΦs. The assay is classed as cell-based. The following applies: […] h treatment of uninfected cells.

The target of assay [3] is T4, Human lysosome (α-galactosidase) (Homo sapiens, UniProt P06280).
T4 construct: gene GLA
T4 sequence (P06280 32-429): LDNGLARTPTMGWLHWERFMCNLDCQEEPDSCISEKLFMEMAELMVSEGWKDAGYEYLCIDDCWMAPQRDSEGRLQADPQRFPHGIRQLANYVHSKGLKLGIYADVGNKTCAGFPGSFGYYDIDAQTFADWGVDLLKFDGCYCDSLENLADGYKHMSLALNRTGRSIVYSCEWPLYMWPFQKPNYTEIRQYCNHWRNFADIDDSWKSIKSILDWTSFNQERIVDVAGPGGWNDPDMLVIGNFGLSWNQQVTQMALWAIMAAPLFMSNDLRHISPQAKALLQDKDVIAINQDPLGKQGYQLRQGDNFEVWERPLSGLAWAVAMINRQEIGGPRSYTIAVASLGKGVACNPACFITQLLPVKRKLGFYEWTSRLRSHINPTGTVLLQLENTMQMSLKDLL
The assay can be described thus: enzyme inhibition assay. The assay is classed as biochemical. The note with it: read-out: IC50 ^a / UV-4B. The text has this: enzyme inhibition assay on Human lysosome (α-galactosidase)

Turning to `COCCCCCCCCCN1C[C@H](O)[C@@H](O)[C@H](O)[C@H]1CO` [UV-4B, N-(9′-methoxynonyl)-1-deoxynojirimycin hydrochloride], the IC50 at Mouse ER α-glucosidase I is 0.16 µM; in assay [1], 1.4 µM; in assay [3], over 1000 µM. Also, the “free oligosaccharide (Glc1Man4GlcNAc1) accumulation in human MDMΦs” value in assay [2] is recorded as “UV-4B led to accumulation of FOS representative of inhibition of both α-glucosidases”.

The values are drawn from PMC5064435, “Inhibition of endoplasmic reticulum glucosidases is required for in vitro and in vivo dengue antiviral activity by the iminosugar UV-4” (Antiviral Research, 2016).
